Reference: patent US6815414B2, “Pharmaceutical compositions for the treatment of helicobacter pylori-associated disorders” (Vecta Ltd., priority 1998, dated 2004)
Entries after “also recorded” stand apart in the source; their conditions may differ. No end group written: not given here.

Key:
[1] = test system: control bacteria (E. coli, S. pneumonia, C. jejuni); experiment: Radioactive gastrin uptake by control bacteria; type: cell-based; conditions: 500 nmol/l, 45 min, 4° C. or 37° C.; autoradiography
Method: (§1) H. pylori (H.P.), E. coli (E.C.), S. pneumonia (S.P.) and C. jejuni (C.J.) bacteria were incubated for 45 minutes with ^125I-labeled gastrin. Incubation was at 4° C. or 37° C. Following initial incubation, proteinase K (P.K) was added for 30 minutes, after which bacteria were washed and blotted. One experiment representative of two.
(§2) To assess labeled gastrin uptake, bacterial pellets were resuspended in 200 μl Brucella broth containing 500 nmol/l ^125I-labeled gastrin (IncStar Pharmatrade). Incubation was at either 4° C. or 37° C. for 45 minutes. Bacteria were washed three times in PBS, resuspended and incubated for 30 minutes in Brucella broth containing proteinase K (Promega) at a concentration of 25 ng/ml. Subsequently, bacteria were washed, resuspended in 100 μl PBS, out of which 10 μl were blotted on nitrocellulose filters and autoradiography performed for 7 days. Incorporated ^125I was quantitated using a gamma counter.

H. pylori [2] = experiment: Radioactive gastrin uptake by H. pylori; type: cell-based, Helicobacter pylori
Method: as §1, §2

H. pylori [3] = experiment: Cold inhibition assay: competition on 125I-labeled gastrin uptake by H. pylori; type: binding, Helicobacter pylori; conditions: 500 nmol/l 125I-labeled gastrin, increasing concentrations of unlabeled peptide, 45 min, 37° C.
Method: Bacteria were incubated in the presence of 500 nmo/l ^125I-labeled gastrin and increasing concentrations of either unlabeled gastrin (G), CCK-8 (CCK), pentagastrin (Pen), somatostatin (Som) or EGF for 45 min. Bacteria were washed and radioactivity remaining in bacterial pellets was determined. One experiment representative of three.
For the cold inhibition assay, bacterial pellets were resuspended in 200 μl Brucella broth containing 500 nmol/l ^125I-labeled gastrin. Unlabeled gastrin in increasing concentrations (1250-5000 nmol/l) was added concurrently. Bacteria were incubated for 45 minutes at 37° C., after which they were extensively washed with PBS. Incorporation of ^125I-labeled gastrin was determined using a gamma counter. As controls, bacteria were incubated with ^125I-labeled gastrin (500 nmol/l) in the presence of CCK-8, pentagastrin, somatostatin or EGF at the indicated concentrations.

H. pylori [4] = experiment: H. pylori growth kinetics in liquid media (optical density); type: cell-based, Helicobacter pylori; conditions: peptide added to liquid media at increasing concentrations, microaerophilic, up to 48 h

Compound	labeling of control bacteria by labeled gastrin [1]	uptake (incorporation) of labeled gastrin by H. pylori (H. pylori [2]; 500 nmol/l, 45 min, 37° C. (not at 4° C.), autoradiography)	radioactive counts incorporated by H. pylori before proteinase K incubation (H. pylori [2]; before proteinase K incubation) [CPM]	radioactive counts incorporated by H. pylori following incubation with proteinase K (H. pylori [2]; following 30 min incubation with proteinase K) [CPM]	inhibition of labeled gastrin uptake by H. pylori (H. pylori [3])	effect on H. pylori growth (growth curve, OD) (H. pylori [4])
^125I-labeled gastrin: 125I-labeled gastrin (IncStar Pharmatrade) used as radioligand for uptake	no labeling	only H. pylori incubated at 37 °C incorporated	311	385	–	–
epidermal growth factor (EGF) (NSDSECPLSHDGYCLHDGVCMYIEALDKYACNCVVGYIGERCQYRDLKWWELR; Epidermal growth factor; UniProt P01133 971-1023, looked up) [growth factor peptide found within the gastric lumen, control peptide]	–	–	–	–	no inhibition	none of the peptides had an effect
C[C@H](N)C(=O)NCC(=O)N[C@H]1CSSC[C@@H](C(=O)O)NC(=O)[C@H](CO)NC(=O)[C@H]([C@@H](C)O)NC(=O)[C@H](Cc2ccccc2)NC(=O)[C@H]([C@@H](C)O)NC(=O)[C@H](CCCCN)NC(=O)[C@H](Cc2c[nH]c3ccccc23)NC(=O)[C@H](Cc2ccccc2)NC(=O)[C@H](Cc2ccccc2)NC(=O)[C@H](CC(N)=O)NC(=O)[C@H](CCCCN)NC1=O [somatostatin, somatostatin 14]	–	–	–	–	no inhibition	none of the peptides had an effect
cholecystokinin (CCK)-8 (fragment 26-33) (DYMGWMDF-NH2; ends and bridges not checked; UniProt P06307 96-103, looked up) [CCK-8, gastrin/CCKB receptor agonist peptide comprising Trp-Met-Asp-PheNH2]	–	–	–	–	competed with gastrin on the binding to H. pylori; also recorded: inhibited labeled gastrin uptake in a dose-dependent manner	did not stimulate bacterial growth; also recorded: none of the peptides had an effect
